# In patent US20170042890A1, “METHODS OF REDUCING DECLINE IN VITAL CAPACITY” (Cytokinetics, Inc., priority 2014, published 2017):
# System: patients with ALS
# Test: BENEFIT-ALS clinical trial: treatment-emergent adverse events, discontinuations, deaths
# Format: in vivo, human
# Description: BENEFIT-ALS was a multi-national, randomized, stratified, double-blind, placebo-controlled, parallel-group study of tirasemtiv in patients with ALS. The study consisted of a screening period, an open-label/lead-in period, and a double-blind treatment period. Following screening, eligible patients received open-label tirasemtiv, 125 mg BID, for 7 days. Patients who tolerated the 7-day lead-in period were randomized in a 1:1 ratio to tirasemtiv or placebo. Over the first 3 weeks of double-blind treatment, patients randomized to tirasemtiv had their TDD up-titrated as follows: 250 mg for 7 days, then 375 mg for 7 days, then 500 mg for 7 days. […] However, in such cases, dose escalation was re-attempted at least one additional time. The highest tolerable tirasemtiv dose for each individual patient was the dose that patient received for the remaining 9 weeks (i.e., the maximum tolerated dose [MTD] phase) of the study. Patients randomized to placebo underwent a corresponding dummy dose titration.
# A total of 711 patients were enrolled in the study and began treatment with open-label tirasemtiv 125 mg BID. After the one-week open-label phase, 302 patients were randomized to placebo and 303 to tirasemtiv. Of these randomized patients, 269 in the placebo group and 204 in the tirasemtiv group completed the study, while 33 on placebo and 99 on tirasemtiv prematurely discontinued study drug, primarily due to AEs (12 patients on placebo 78 patients on tirasemtiv) and patient withdrawal of consent (7 placebo, 12 tirasemtiv).
# Safety data presented were based on the safety analysis set, defined as all patients who received at least 1 dose of double-blind study drug. Of the 605 randomized patients, 596 (295 placebo, 301 tirasemtiv) received at least 1 dose of double-blind study drug and were included in the safety analysis set. Data for the primary and secondary efficacy endpoints were analyzed with the Modified FAS. This analysis set included all patients who received at least 1 dose of double-blind study drug and had at least 1 efficacy assessment during the double-blind treatment period, and excluded 156 patients who were randomized in blocks containing patients affected by a study drug assignment error in which 58 patients randomized to and treated with double-blind tirasemtiv were dispensed double-blind placebo instead. Based on these criteria, the Modified FAS consisted of 388 patients (210 placebo, 178 tirasemtiv).
# An overview of treatment-emergent AEs during the double-blind phase of the study is provided in Table 4, and commonly reported AEs during the double-blind phase are summarized in Table 5. Serious AEs during the double-blind phase of the study were reported for 16 patients (5.4%) in the placebo group and 27 patients (9.0%) in the tirasemtiv group. By the Medical Dictionary for Regulatory […] (MedDRA) system organ class, the most commonly reported SAEs involved respiratory, thoracic and mediastinal disorders (2.0% placebo, 1.3% tirasemtiv). By MedDRA preferred term, AEs that were reported for more than 1 patient included the following: dysphagia (0.3% placebo, 0.7% tirasemtiv), pneumonia (0.3% placebo, 0.7% tirasemtiv), confusional state (0% placebo, 0.7% tirasemtiv), delirium (0% placebo, 0.7% tirasemtiv), and respiratory failure (1.0% placebo, […]).
# [1] = double-blind phase, N=301, MedDRA preferred term
# [2] = double-blind phase, N=301, NCI CTCAE
# [3] = double-blind phase, N=301, listed as tirasemtiv
# [4] = double-blind phase, reported for more than 1 patient
smiles,measurement,setting,value
"C#Cc1cnc2nc(O)n(C(CC)CC)c2n1 [Tirasemtiv, 6-ethynyl-1-(pentan-3-yl)-1H-imidazo[4,5-b]pyrazin-2(3H)one]",Patients who terminated treatment during the first 4 weeks of the double-blind phase,71/97 of early terminations,73.2%
same,Confusional state leading to early discontinuation,double-blind phase,5.0%
same,Dizziness leading to early discontinuation,double-blind phase,9.3%
same,Fatigue leading to early discontinuation,double-blind phase,5.0%
same,"Gastrointestinal (GI) AEs, % of patients",double-blind phase,43.5%
same,"Gastrointestinal (GI) AEs, No. of patients",double-blind phase,131
same,"SAEs: respiratory, thoracic and mediastinal disorders (MedDRA system organ class)",double-blind phase,1.3%
same,% of patients with AE leading to early termination,"double-blind phase, N=301",(25.9%)
same,% of patients with SAE,"double-blind phase, N=301",(9.0%)
same,"Deaths, % of patients","double-blind phase, N=301",(0.7%)
same,"Deaths, No. of patients","double-blind phase, N=301",2
same,No. of patients with AE leading to early termination,"double-blind phase, N=301",78
same,No. of patients with SAE,"double-blind phase, N=301",27
same,AE Asthenia,[1],15.9%
same,AE Confusional state,[1],11.0%
same,AE Constipation,[1],6.3%
same,AE Contusion,[1],7.3%
same,AE Decreased appetite,[1],10.0%
same,AE Diarrhea,[1],7.3%
same,AE Dizziness,[1],50.8%
same,AE Fatigue,[1],33.2%
same,AE Headache,[1],17.9%
same,AE Insomnia,[1],10.3%
same,AE Muscle spasms,[1],15.0%
same,AE Muscular weakness,[1],11.3%
same,AE Nasopharyngitis,[1],6.3%
same,AE Nausea,[1],21.9%
same,AE Respiratory failure,[1],6.3%
same,AE Somnolence,[1],13.0%
same,% of patients with Grade 3 AE,[2],(20.3%)
same,% of patients with Grade 4 AE,[2],(3.0%)
same,% of patients with Grade 5 AE,[2],(0.7%)
same,No. of patients with Grade 3 AE,[2],61
same,No. of patients with Grade 4 AE,[2],9
same,No. of patients with Grade 5 AE,[2],2
same,% of patients with SAE,[3],9.0%
same,"Deaths, % of patients",[3],0.7%
same,Serious AE confusional state,[4],0.7%
same,Serious AE delirium,[4],0.7%
same,Serious AE dysphagia,[4],0.7%
same,Serious AE pneumonia,[4],0.7%
same,Serious AE respiratory failure,[4],0.5%
same,No. of patients with any treatment-emergent AE,"double-blind phase, safety set N=301",291
same,Patients who prematurely discontinued study drug,of 303 randomized to tirasemtiv,99
